pIC50: −log10 of the molar value. Read-outs that look alike come from different tables or passages of the source.
Test system: NCI-H1975 (EGFR-L858R-T790M) cells
Assay: Inhibitory activity on proliferation of NCI-H1975 (EGFR-L858R-T790M) cells (CTG, 72 h)
Type: cell-based
Settings: Homo sapiens
Method: NCI-H1975 (EGFR-L858R-T790M) and A431 (EGFR-WT) cells were purchased from ATCC and cultured in an incubator at 37° C. with 5% CO2, and the culture mediums were RPMI1640+10% FBS and DMEM+10% FBS, respectively. On the first day, NCI-H1975 (EGFR-L858R-T790M) and A431 (EGFR-WT) cells in the logarithmic phase were collected, and viable cells were counted using an automatic cell analyzer (countstar). The cell suspensions were adjusted with the culture mediums and plated on a 96-well cell culture plate at 1000 cells/well for NCI-H1975 (EGFR-L858R-T790M) cells and at 3000 cells/well for A431 cells. The next day, the culture mediums were aspirated, and 90 μL of fresh culture mediums and 10 μL of the compounds at different concentrations were added to each well, wherein the final concentration of DMSO in each well was 0.1%. The plate was cultured in the incubator at 37° C. with 5% CO2 for 72 hours. After 72 hours of drug treatment, 50 μL of CTG solution (promega, G7572), which was already pre-melted and equilibrated to room temperature, was added to each well, and the mixtures were uniformly mixed for 2 min using a microplate shaker. The plate was placed at room temperature for 10 min, and then […] signal values were measured using a microplate reader (PHERAstar FSX).
Surviving cells % was calculated based on Vsample/Vvehicle control×100%, wherein Vsample was the readout of the drug-treated group, and Vvehicle control was the average value of the vehicle control group. Using the origin 9.2 software and nonlinear regression model, S-shaped dose-survival curves were plotted, and IC50 values were calculated.

[1] = read-out: IC50 (value in brackets)

pIC50 (read-out: IC50 (class symbol)) | pIC50 [1] | SMILES
6.30 to 7.00 | 6.53 | COc1cc(N2CCC(CN3CCN(c4ccc(N5CCC(=O)NC5=O)cc4)CC3)CC2)c(-c2cnn(C)c2)cc1Nc1ncc(Cl)c(Nc2ccccc2P(C)(C)=O)n1 [Compound 132, 1-(4-(4-((1-(4-((5-chloro-4-((2-(dimethylphosphoryl)phenyl)amino)pyrimidin-2-yl)amino)-5-methoxy-2-(1-methyl-1H-pyrazol-4-yl)phenyl)piperidin-4-yl)methyl)piperazin-1-yl)phenyl)dihydropyrimidine-2,4(1H,3H)-dione]
> 7.00 | 7.85 | COc1cc(N2CCC3(CCN(CC4CCN(c5ccc6c(c5)C(=O)N(C5CCC(=O)NC5=O)C6=O)CC4)CC3)CC2)c(-c2cnn(C)c2)cc1Nc1ncc(Br)c(Nc2ccc3nccnc3c2P(C)(C)=O)n1 (centres unmarked) [Trifluoroacetate of compound 20, 5-(4-((9-(4-((5-bromo-4-((5-(dimethylphosphoryl)quinoxalin-6-yl)amino)pyrimidin-2-yl)amino)-5-methoxy-2-(1-methyl-1H-pyrazol-4-yl)phenyl)-3,9-diazaspiro[5.5]undecan-3-yl)methyl)piperidin-1-yl)-2-(2,6-dioxopiperidin-3-yl)isoindoline-1,3-dione]
6.30 to 7.00 | 6.52 | COc1cc(N2CCC(CN3CCCC4(CCN(c5ccc6c(c5)C(=O)N(C5CCC(=O)NC5=O)C6=O)CC4)C3)CC2)c(-c2cnn(C)c2)cc1Nc1ncc(Br)c(Nc2ccc(-c3ccccc3)cc2P(C)(C)=O)n1 (centres unmarked) [Compound 44, 5-(2-((1-(4-((5-bromo-4-((3-(dimethylphosphoryl)-[1,1′-biphenyl]-4-yl)amino)pyrimidin-2-yl)amino)-5-methoxy-2-(1-methyl-1H-pyrazol-4-yl)phenyl)piperidin-4-yl)methyl)-2,9-diazaspiro[5.5]undecan-9-yl)-2-(2,6-dioxopiperidin-3-yl)isoindoline-1,3-dione]
> 7.00 | 7.68 | COc1cc(N2CCC(CN3CCN(c4ccc(NC5CCC(=O)NC5=O)cc4F)CC3)CC2)c(-c2cnn(C)c2)cc1Nc1ncc(Cl)c(Nc2ccc(F)cc2P(C)(C)=O)n1 (centres unmarked) [Compound 159, 3-((4-(4-((1-(4-((5-chloro-4-((2-(dimethylphosphoryl)-4-fluorophenyl)amino)pyrimidin-2-yl)amino)-5-methoxy-2-(1-methyl-1H-pyrazol-4-yl)phenyl)piperidin-4-yl)methyl)piperazin-1-yl)-3-fluorophenyl)amino)piperidine-2,6-dione]
> 7.00 | 7.28 | COc1cc(N2CCC(N3CCN(CC4CCN(c5cc6c(cc5F)C(=O)N(C5CCC(=O)NC5=O)C6=O)CC4)CC3)CC2)c(-c2cnn(C)c2)cc1Nc1ncc(Cl)c(Nc2ccc3nccnc3c2P(C)(C)=O)n1 (centres unmarked) [Compound 5, 5-(4-((4-(1-(4-((5-chloro-4-((5-(dimethylphosphoryl)quinoxalin-6-yl)amino)pyrimidin-2-yl)amino)-5-methoxy-2-(1-methyl-1H-pyrazol-4-yl)phenyl)piperidin-4-yl)piperazin-1-yl)methyl)piperidin-1-yl)-2-(2,6-dioxopiperidin-3-yl)-6-fluoroisoindoline-1,3-dione]
6.30 to 7.00 | – | COc1cc(N2CCC(N3CCC(CN4CCCC5(CCN(c6ccc7c(c6)C(=O)N(C6CCC(=O)NC6=O)C7=O)CC5)C4)CC3)CC2)c(-c2cnn(C)c2)cc1Nc1ncc(Cl)c(Nc2ccc3nccnc3c2P(C)(C)=O)n1 (centres unmarked) [Compound 17, 5-(2-((1′-(4-((5-chloro-4-((5-(dimethylphosphoryl)quinoxalin-6-yl)amino)pyrimidin-2-yl)amino)-5-methoxy-2-(1-methyl-1H-pyrazol-4-yl)phenyl)-[1,4′-bipiperidin]-4-yl)methyl)-2,9-diazaspiro[5.5]undecan-9-yl)-2-(2,6-dioxopiperidin-3-yl)isoindoline-1,3-dione]
> 7.00 | 7.49 | COc1cc(N2CCC(CN3CCN(c4ccc5c(c4)CN(C4CCC(=O)NC4=O)C5=O)CC3)CC2)c(-c2cnn(C)c2)cc1Nc1ncc(Cl)c(Nc2ccccc2P(C)(C)=O)n1 (centres unmarked) [Compound 140, 3-(5-(4-((1-(4-((5-chloro-4-((2-(dimethylphosphoryl)phenyl)amino)pyrimidin-2-yl)amino)-5-methoxy-2-(1-methyl-1H-pyrazol-4-yl)phenyl)piperidin-4-yl)methyl)piperazin-1-yl)-1-oxoisoindolin-2-yl)piperidine-2,6-dione]
6.30 to 7.00 | 6.94 | COc1cc(N2CCN(C3CN(c4ccc5c(c4)C(=O)N(C4CCC(=O)NC4=O)C5=O)C3)CC2)c(-c2cnn(C)c2)cc1Nc1ncc(Cl)c(Nc2ccccc2P(C)(C)=O)n1 (centres unmarked) [Compound 149, 5-(3-(4-(4-((5-chloro-4-((2-(dimethylphosphoryl)phenyl)amino)pyrimidin-2-yl)amino)-5-methoxy-2-(1-methyl-1H-pyrazol-4-yl)phenyl)piperazin-1-yl)azetidin-1-yl)-2-(2,6-dioxopiperidin-3-yl)isoindoline-1,3-dione]
> 7.00 | 7.43 | COc1cc(N2CCC(C3CCN(CC4CCN(c5ccc6c(c5)C(=O)N(C5CCC(=O)NC5=O)C6=O)CC4)CC3)CC2)c(-c2cnn(C)c2)cc1Nc1ncc(Cl)c(Nc2ccc3nccnc3c2P(C)(C)=O)n1 (centres unmarked) [Trifluoroacetate of compound 13, 5-(4-((1′-(4-((5-chloro-4-((5-(dimethylphosphoryl)quinoxalin-6-yl)amino)pyrimidin-2-yl)amino)-5-methoxy-2-(1-methyl-1H-pyrazol-4-yl)phenyl)-[4,4′-bipiperidin]-1-yl)methyl)piperidin-1-yl)-2-(2,6-dioxopiperidin-3-yl)isoindoline-1,3-dione]
> 7.00 | 7.41 | COc1cc(N2CCC3(CCN(CC4CCN(c5cc6c(cc5F)C(=O)N(C5CCC(=O)NC5=O)C6=O)CC4)CC3)CC2)c(-c2cnn(C)c2)cc1Nc1ncc(Br)c(Nc2ccc3nccnc3c2P(C)(C)=O)n1 (centres unmarked) [Compound 21, 5-(4-((9-(4-((5-bromo-4-((5-(dimethylphosphoryl)quinoxalin-6-yl)amino)pyrimidin-2-yl)amino)-5-methoxy-2-(1-methyl-1H-pyrazol-4-yl)phenyl)-3,9-diazaspiro[5.5]undecan-3-yl)methyl)piperidin-1-yl)-2-(2,6-dioxopiperidin-3-yl)-6-fluoroisoindoline-1,3-dione]
> 7.00 | 7.55 | COc1cc(N2CCC(N3CCC4(CCCN(c5cc6c(cc5F)C(=O)N(C5CCC(=O)NC5=O)C6=O)C4)CC3)CC2)c(-c2cnn(C)c2)cc1Nc1ncc(Br)c(Nc2ccc3nccnc3c2P(C)(C)=O)n1 (centres unmarked) [Compound 33, 5-(9-(1-(4-((5-bromo-4-((5-(dimethylphosphoryl)quinoxalin-6-yl)amino)pyrimidin-2-yl)amino)-5-methoxy-2-(1-methyl-1H-pyrazol-4-yl)phenyl)piperidin-4-yl)-2,9-diazaspiro[5.5]undecan-2-yl)-2-(2,6-dioxopiperidin-3-yl)-6-fluoroisoindoline-1,3-dione]
> 7.00 | 7.19 | COc1cc(N2CCC(CN3CCN(c4ccc(C5CCC(=O)NC5=O)c(F)c4)CC3)CC2)c(-c2cnn(C)c2)cc1Nc1ncc(Cl)c(Nc2ccc(-c3ccccc3)cc2P(C)(C)=O)n1 (centres unmarked) [Compound 156, 3-(4-(4-((1-(4-((5-chloro-4-((3-(dimethylphosphoryl)-[1,1′-biphenyl]-4-yl)amino)pyrimidin-2-yl)amino)-5-methoxy-2-(1-methyl-1H-pyrazol-4-yl)phenyl)piperidin-4-yl)methyl)piperazin-1-yl)-2-fluorophenyl)piperidine-2,6-dione]
